Measured values as given in patent US20190365774A1, “COMBINATION THERAPY OF BACE-1 INHIBITOR AND ANTI-N3PGLU ABETA ANTIBODY” (Eli Lilly and Company, priority 2016, published 2019).
Read-outs that look alike come from different tables or passages of the source.

Legend:
human BACE2 (1-460):Fc = target: T1, human BACE2 (1-460):Fc (Homo sapiens, UniProt Q9Y5Z0); assay: BACE2 TMEM27 FRET assay; format: biochemical
T1 construct: made in house; host or cells: HEK293 (transient, secreted into conditioned media, Protein A purified)
T1 sequence (Q9Y5Z0 21-460): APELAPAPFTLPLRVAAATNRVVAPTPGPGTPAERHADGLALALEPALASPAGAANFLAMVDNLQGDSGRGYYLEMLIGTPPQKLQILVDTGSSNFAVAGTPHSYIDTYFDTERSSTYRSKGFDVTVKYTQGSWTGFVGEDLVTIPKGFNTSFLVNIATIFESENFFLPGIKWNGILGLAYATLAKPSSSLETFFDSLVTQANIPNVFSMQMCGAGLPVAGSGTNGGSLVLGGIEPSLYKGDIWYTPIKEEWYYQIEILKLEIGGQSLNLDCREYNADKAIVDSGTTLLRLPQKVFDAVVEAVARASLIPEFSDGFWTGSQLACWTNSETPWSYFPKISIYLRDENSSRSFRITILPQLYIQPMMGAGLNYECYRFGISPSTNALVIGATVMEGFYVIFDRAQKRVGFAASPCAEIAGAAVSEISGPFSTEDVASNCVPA
Description: (§1) To assess selectivity of BACE1 over BACE2, the test compound is evaluated in FRET-based enzymatic assays using specific substrates for BACE1 and BACE2 as described below. For in vitro enzymatic and cellular assays, the test compound is prepared in DMSO to make up a 10 mM stock solution. The stock solution is serially diluted in DMSO to obtain a ten-point dilution curve with final compound concentrations ranging from 10 μM to 0.05 nM in a 96-well round-bottom plate before conducting the in vitro enzymatic and whole cell assays.
Human BACE1 (accession number: AF190725) and human BACE2 (accession number: AF 204944) are cloned from total brain cDNA by RT-PCR. […]
Conditioned media of HEK293 cell transiently transfected with huBACE1:Fc or huBACE2:Fc cDNA are collected. […] The purity of final product is assessed by electrophoresis in 4-20% Tris-Glycine SDS-PAGE. […]
Transmembrane protein 27 (TMEM27) (Accession Number NM_020665), also known as Collectrin) is a recently described substrate for BACE2, but not BACE1 (Esterhazy, et al, Cell Metabolism, 14, 365-377 (2011)). […] The RFU of the mixture at time 0 is recorded at excitation wavelength 430 nm and emission wavelength 535 nm. […] The RFU at the end of incubation is recorded with the same excitation and emission settings used at time 0. […]

[1] = system: BACE1 activity in SH-SY5YAPP695Wt cells; assay: SH-SY5YAPP695Wt whole cell assay (Abeta 1-40 / 1-42 ELISA); format: cell-based; conditions: Homo sapiens, Mean ± SEM, n = 4, 24 hours incubation
Description: as §1
The routine whole cell assay for the measurement of inhibition of BACE1 activity utilizes the human neuroblastoma cell line SH-SY5Y (ATCC Accession No. CRL2266) stably expressing a human APP695Wt cDNA. Cells are routinely used up to passage number 6 and then discarded.
SH-SY5YAPP695Wt cells are plated in 96 well tissue culture plates at 5.0×10^4 cells/well in 200 μL culture media (50% MEM/EBSS and Ham's F12, 1× each sodium pyruvate, non-essential amino acids and Na bicarbonate containing 10% FBS). The following day, media is removed from the cells, fresh media added then incubated at 37° C. for 24 hours in the presence/absence of test compound at the desired concentration range.
At the end of the incubation, conditioned media are analyzed for evidence of beta-secretase activity by analysis of Abeta peptides 1-40 and 1-42 by specific sandwich ELISAs. […]

Abeta 1-x = assay: In vivo inhibition of beta-secretase, brain Abeta 1-x in PDAPP mice; conditions: young female PDAPP mice, three hours after dosing, vs vehicle
Text: Several animal models, including mouse, guinea pig, dog, and monkey, may be used to screen for inhibition of beta-secretase activity in vivo following compound treatment. Animals used in this invention can be wild type, transgenic, or gene knockout animals. For example, the PDAPP mouse model, prepared as described in Games et al., Nature 373, 523-527 (1995), and other non-transgenic or gene knockout animals are useful to analyze in vivo inhibition of Abeta and sAPPbeta production in the presence of inhibitory compounds. Generally, 2 month old PDAPP mice, gene knockout mice or non-transgenic animals are administered compound formulated in vehicles, such as corn oil, beta-cyclodextran, phosphate buffers, PHARMASOLVE®, or other suitable vehicles via oral, subcutaneous, intra-venous, feeding, or other route of administration. One to twenty-four hours following the administration of compound, animals are sacrificed, and brains are removed for analysis of Abeta 1-x. “Abeta 1-x” as used herein refers to the sum of Abeta species that begin with residue 1 and end with a C-terminus greater than residue 28. This detects the majority of Abeta species and is often called “total Abeta”. Total Abeta peptides (Abeta 1-x) levels are measured by a sandwich ELISA, using monoclonal 266 as a capture antibody and biotinylated 3D6 as reporting antibody. (See May, et al., Journal of Neuroscience, 31, 16507-16516 (2011)).
For acute studies, compound or appropriate vehicle is administered and animals are sacrificed at about 3 hours after dosing. Brain tissue, is obtained from selected animals and analyzed for the presence of Abeta 1-x. After chronic dosing brain tissues of older APP transgenic animals may also be analyzed for the amount of beta-amyloid plaques following compound treatment.
For example, a 3, 10, and 30 mg/kg oral dose of Example 1, to young female PDAPP mice reduced Abeta 1-x peptide levels in brain hippocampus by 23% (non-significant), 43% (p<0.05), and 58% (p<0.01), respectively.

BACE2 IC50 / BACE1 IC50 ratio (fold selectivity for BACE1 over BACE2) (human BACE2 (1-460):Fc): about 400 fold
IC50 ([1]; read-out: SH-SY5YAPP695Wt A-beta (1-40) ELISA IC50): 0.385 ± 0.163 nM
IC50 ([1]; read-out: SH-SY5YAPP695Wt A-beta (1-42) ELISA IC50): 0.381 ± 0.266 nM
Compound: CC(F)(F)[C@H]1OC[C@]2(c3cc(NC(=O)c4cnc(-n5cncn5)cn4)ccc3F)N=C(N)SC[C@H]12 [Example 1, N-[3-[(4aS,5S,7aS)-2-Amino-5-(1,1-difluoroethyl)-4,4a,5,7-tetrahydrofuro[3,4-d][1,3]thiazin-7a-yl]-4-fluoro-phenyl]-5-(1,2,4-triazol-1-yl)pyrazine-2-carboxamide]
reduction of Abeta 1-x peptide levels in brain hippocampus (Abeta 1-x; 3 mg/kg oral, non-significant): 23%
reduction of Abeta 1-x levels in brain cortical tissue (Abeta 1-x; 3 mg/kg oral, p<0.01): 43%
reduction of Abeta 1-x levels in brain cortical tissue (Abeta 1-x; 10 mg/kg oral, p<0.01): 59%
reduction of Abeta 1-x peptide levels in brain hippocampus (Abeta 1-x; 10 mg/kg oral, p<0.05): 43%
reduction of Abeta 1-x levels in brain cortical tissue (Abeta 1-x; 30 mg/kg oral, p<0.01): 73%
reduction of Abeta 1-x peptide levels in brain hippocampus (Abeta 1-x; 30 mg/kg oral, p<0.01): 58%
